Assay results as given in ChEMBL document CHEMBL1148480, “Structure-activity studies of orexin a and orexin B at the human orexin 1 and orexin 2 receptors led to orexin 2 receptor selective and orexin 1 receptor preferring ligands” (J Med Chem, 2004).
Residues, ends and D or L forms follow the SMILES beside them.

How the values were obtained:
[1] = Ratio of orexin-1 receptor to orexin-2 receptor in human
Orexin receptor type 2 = target: T1, Orexin receptor type 2 (Homo sapiens, UniProt O43614); experiment: Effective agonist concentration to the human Orexin receptor type 2 was determined using the Xlfit program; assay type: functional
T1 sequence (O43614 whole entry): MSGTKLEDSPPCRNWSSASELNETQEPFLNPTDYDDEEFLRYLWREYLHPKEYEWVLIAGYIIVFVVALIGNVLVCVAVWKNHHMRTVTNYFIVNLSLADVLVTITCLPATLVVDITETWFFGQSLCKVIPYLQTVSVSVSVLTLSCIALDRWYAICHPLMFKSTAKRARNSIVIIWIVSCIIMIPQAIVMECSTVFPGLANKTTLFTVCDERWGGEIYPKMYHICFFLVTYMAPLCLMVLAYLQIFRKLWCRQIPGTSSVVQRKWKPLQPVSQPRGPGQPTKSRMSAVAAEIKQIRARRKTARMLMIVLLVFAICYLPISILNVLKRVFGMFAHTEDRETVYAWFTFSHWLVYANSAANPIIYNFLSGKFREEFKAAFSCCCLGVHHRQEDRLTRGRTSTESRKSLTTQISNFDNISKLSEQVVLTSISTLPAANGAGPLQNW

[2] = target: T2, Orexin/Hypocretin receptor type 1 (Homo sapiens, UniProt O43613); experiment: Effective agonist concentration to human orexin receptor type 1 determined using the Xlfit program; assay type: functional
T2 sequence (O43613 whole entry): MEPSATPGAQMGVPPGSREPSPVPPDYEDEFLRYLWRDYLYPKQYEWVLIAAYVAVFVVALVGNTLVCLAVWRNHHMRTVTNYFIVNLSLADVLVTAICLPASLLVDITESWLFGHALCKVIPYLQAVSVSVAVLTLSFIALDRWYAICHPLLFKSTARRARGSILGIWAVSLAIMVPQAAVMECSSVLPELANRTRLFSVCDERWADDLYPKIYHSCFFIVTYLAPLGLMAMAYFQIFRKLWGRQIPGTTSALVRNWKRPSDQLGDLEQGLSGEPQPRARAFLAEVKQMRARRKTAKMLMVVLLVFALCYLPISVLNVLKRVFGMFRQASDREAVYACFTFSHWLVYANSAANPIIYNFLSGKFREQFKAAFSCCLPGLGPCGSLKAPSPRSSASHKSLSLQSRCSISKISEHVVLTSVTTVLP

Ratio [1] | EC50 (Orexin receptor type 2) | EC50 [2] | SMILES
> 280 | – | – | CC[C@H](C)[C@H](NC(=O)CNC(=O)[C@@H]1CCCN1C(=O)[C@H](C)NC(=O)[C@H](Cc1c[nH]cn1)NC(=O)[C@H](CC(N)=O)NC(=O)CNC(=O)[C@H](CO)NC(=O)[C@H](C)NC(=O)[C@H](CCC(N)=O)NC(=O)[C@H](CC(C)C)NC(=O)[C@H](CC(C)C)NC(=O)[C@H](CCCN=C(N)N)NC(=O)[C@H](CCC(N)=O)NC(=O)[C@H](CC(C)C)NC(=O)[C@H](CCCN=C(N)N)NC(=O)CNC(=O)[C@H](CCC(N)=O)NC(=O)[C@H](CC(C)C)NC(=O)CN)C(=O)N[C@@H](CC(C)C)C(=O)N[C@H](C(=O)N[C@@H](CCSC)C(=O)O)[C@@H](C)O (H-GLQGRLQRLLQASGNHAPGILTM-OH)
18.2 | – | – | CC[C@H](C)[C@H](NC(=O)CNC(=O)[C@H](C)NC(=O)[C@H](C)NC(=O)[C@H](Cc1c[nH]cn1)NC(=O)[C@H](CC(N)=O)NC(=O)CNC(=O)[C@H](CO)NC(=O)[C@H](C)NC(=O)[C@H](CCC(N)=O)NC(=O)[C@H](CC(C)C)NC(=O)[C@H](CC(C)C)NC(=O)[C@H](CCCN=C(N)N)NC(=O)[C@H](CCC(N)=O)NC(=O)[C@H](CC(C)C)NC(=O)[C@H](CCCN=C(N)N)NC(=O)CNC(=O)[C@@H](N)CCC(N)=O)C(=O)N[C@@H](CC(C)C)C(=O)N[C@H](C(=O)N[C@@H](CCSC)C(=O)O)[C@@H](C)O (H-QGRLQRLLQASGNHAAGILTM-OH)
– | 2.67 µM | > 1000 µM | CC[C@H](C)[C@H](NC(=O)CNC(=O)[C@H](C)NC(=O)[C@H](C)NC(=O)[C@H](Cc1cnc[nH]1)NC(=O)[C@H](CC(N)=O)NC(=O)CNC(=O)[C@H](CO)NC(=O)[C@H](C)NC(=O)[C@H](CCC(N)=O)NC(=O)[C@H](CC(C)C)NC(=O)[C@H](CC(C)C)NC(=O)[C@H](CCCNC(=N)N)NC(=O)[C@H](CCC(N)=O)NC(=O)[C@H](CC(C)C)NC(=O)[C@H](CCCNC(=N)N)NC(=O)CNC(=O)[C@H](CCC(N)=O)NC(=O)[C@H](CC(C)C)NC(=O)CN)C(=O)N[C@@H](CC(C)C)C(=O)N1CCC[C@H]1C(=O)N[C@@H](CCSC)C(=O)O (H-GLQGRLQRLLQASGNHAAGILPM-OH)
– | > 1000 µM | > 1000 µM | CC(C)C[C@H](NC(=O)CNC(=O)[C@@H]1CCCN1C(=O)[C@@H]1CCCN1C(=O)CNC(=O)[C@H](CO)NC(=O)[C@@H](N)CCCNC(=N)N)C(=O)N[C@@H](CCC(N)=O)C(=O)NCC(=O)N[C@@H](CCCNC(=N)N)C(=O)N[C@@H](CC(C)C)C(=O)N[C@@H](CCC(N)=O)C(=O)N[C@@H](CCCNC(=N)N)C(=O)N[C@@H](CC(C)C)C(=O)N[C@@H](CC(C)C)C(=O)N[C@@H](CCC(N)=O)C(=O)N[C@@H](C)C(=O)N[C@@H](CO)C(=O)NCC(=O)N[C@@H](CC(N)=O)C(=O)N[C@@H](Cc1cnc[nH]1)C(=O)O (H-RSGPPGLQGRLQRLLQASGNH-OH)
– | 0.45 µM | 1.03 µM | CC[C@H](C)[C@H](NC(=O)CNC(=O)[C@H](C)NC(=O)[C@H](C)NC(=O)[C@H](Cc1cnc[nH]1)NC(=O)[C@H](CC(N)=O)NC(=O)CNC(=O)[C@H](C)NC(=O)CNC(=O)[C@H](Cc1cnc[nH]1)NC(=O)[C@H](CC(C)C)NC(=O)[C@H](CC(C)C)NC(=O)[C@H](CCC(=O)O)NC(=O)[C@H](Cc1ccc(O)cc1)NC(=O)[C@H](CC(C)C)NC(=O)[C@H](CCCNC(=N)N)NC(=O)[C@H](CS)NC(=O)[C@@H](N)CO)C(=O)N[C@@H](CC(C)C)C(=O)N[C@H](C(=O)N[C@@H](CC(C)C)C(=O)O)[C@@H](C)O (H-SCRLYELLHGAGNHAAGILTL-OH)
– | > 1000 µM | > 1000 µM | CC[C@H](C)[C@H](NC(=O)CNC(=O)[C@H](C)NC(=O)[C@H](C)NC(=O)[C@H](Cc1c[nH]cn1)NC(=O)[C@H](CC(N)=O)NC(=O)CNC(=O)[C@@H](N)CO)C(=O)N[C@@H](CC(C)C)C(=O)N[C@H](C(=O)N[C@@H](CCSC)C(=O)O)[C@@H](C)O (H-SGNHAAGILTM-OH)
– | 2.33 µM | > 1000 µM | CC[C@H](C)[C@H](NC(=O)CNC(=O)[C@H](C)NC(=O)[C@H](C)NC(=O)[C@H](Cc1cnc[nH]1)NC(=O)[C@H](CC(N)=O)NC(=O)CNC(=O)[C@H](CO)NC(=O)[C@H](C)NC(=O)[C@H](CCC(N)=O)NC(=O)[C@H](C)NC(=O)[C@H](CC(C)C)NC(=O)[C@H](CCCNC(=N)N)NC(=O)[C@H](CCC(N)=O)NC(=O)[C@H](CC(C)C)NC(=O)[C@H](CCCNC(=N)N)NC(=O)CNC(=O)[C@H](CCC(N)=O)NC(=O)[C@H](CC(C)C)NC(=O)CN)C(=O)N[C@@H](CC(C)C)C(=O)N[C@H](C(=O)N[C@@H](CCSC)C(=O)O)[C@@H](C)O (H-GLQGRLQRLAQASGNHAAGILTM-OH)
– | 3.6 µM | > 1000 µM | CC[C@H](C)[C@H](NC(=O)CNC(=O)[C@@H]1CCCN1C(=O)[C@H](C)NC(=O)[C@H](Cc1cnc[nH]1)NC(=O)[C@H](CC(N)=O)NC(=O)CNC(=O)[C@H](CO)NC(=O)[C@H](C)NC(=O)[C@H](CCC(N)=O)NC(=O)[C@H](CC(C)C)NC(=O)[C@H](CC(C)C)NC(=O)[C@H](CCCNC(=N)N)NC(=O)[C@H](CCC(N)=O)NC(=O)[C@H](CC(C)C)NC(=O)[C@H](CCCNC(=N)N)NC(=O)CNC(=O)[C@H](CCC(N)=O)NC(=O)[C@H](CC(C)C)NC(=O)CN)C(=O)N[C@@H](CC(C)C)C(=O)N[C@H](C(=O)N[C@@H](CCSC)C(=O)O)[C@@H](C)O (H-GLQGRLQRLLQASGNHAPGILTM-OH)
– | > 1000 µM | > 1000 µM | CSCC[C@H](NC(=O)[C@@H](NC(=O)[C@H](CC(C)C)NC(=O)[C@H](C)NC(=O)CNC(=O)[C@H](C)NC(=O)[C@H](C)NC(=O)[C@H](Cc1c[nH]cn1)NC(=O)[C@H](CC(N)=O)NC(=O)CNC(=O)[C@H](CO)NC(=O)[C@H](C)NC(=O)[C@H](CCC(N)=O)NC(=O)[C@H](CC(C)C)NC(=O)[C@H](CC(C)C)NC(=O)[C@H](CCCN=C(N)N)NC(=O)[C@H](CCC(N)=O)NC(=O)[C@H](CC(C)C)NC(=O)[C@H](CCCN=C(N)N)NC(=O)CNC(=O)[C@H](CCC(N)=O)NC(=O)[C@H](CC(C)C)NC(=O)CN)[C@@H](C)O)C(=O)O (H-GLQGRLQRLLQASGNHAAGALTM-OH)
– | 0.57 µM | 3.16 µM | CC[C@H](C)[C@H](NC(=O)CNC(=O)[C@H](C)NC(=O)[C@H](C)NC(=O)[C@H](Cc1cnc[nH]1)NC(=O)[C@H](CC(N)=O)NC(=O)CNC(=O)[C@H](CO)NC(=O)[C@H](C)NC(=O)[C@H](CCC(N)=O)NC(=O)[C@H](CC(C)C)NC(=O)[C@H](CC(C)C)NC(=O)[C@H](CCCNC(=N)N)NC(=O)[C@H](CCC(N)=O)NC(=O)[C@H](CC(C)C)NC(=O)[C@H](CCCNC(=N)N)NC(=O)CNC(=O)[C@H](CCC(N)=O)NC(=O)[C@H](CC(C)C)NC(=O)[C@H](C)N)C(=O)N[C@@H](CC(C)C)C(=O)N[C@H](C(=O)N[C@@H](CCSC)C(=O)O)[C@@H](C)O (H-ALQGRLQRLLQASGNHAAGILTM-OH)
– | 0.32 µM | 2.18 µM | CC[C@H](C)[C@H](NC(=O)CNC(=O)[C@H](C)NC(=O)[C@H](C)NC(=O)[C@H](Cc1cnc[nH]1)NC(=O)[C@H](C)NC(=O)CNC(=O)[C@H](CO)NC(=O)[C@H](C)NC(=O)[C@H](CCC(N)=O)NC(=O)[C@H](CC(C)C)NC(=O)[C@H](CC(C)C)NC(=O)[C@H](CCCNC(=N)N)NC(=O)[C@H](CCC(N)=O)NC(=O)[C@H](CC(C)C)NC(=O)[C@H](CCCNC(=N)N)NC(=O)CNC(=O)[C@H](CCC(N)=O)NC(=O)[C@H](CC(C)C)NC(=O)CN)C(=O)N[C@@H](CC(C)C)C(=O)N[C@H](C(=O)N[C@@H](CCSC)C(=O)O)[C@@H](C)O (stereo in doubt; form 2)
– | > 1000 µM | > 1000 µM | CC(C)C[C@H](NC(=O)[C@@H]1CCCN1C(=O)[C@@H]1CCC(=O)N1)C(=O)N1CCC[C@H]1C(=O)N[C@@H](CC(=O)O)C(=O)N[C@@H](CS)C(=O)N[C@@H](CS)C(=O)N[C@@H](CCCN=C(N)N)C(=O)N[C@@H](CCC(N)=O)C(=O)N[C@@H](CCCCN)C(=O)N[C@H](C(=O)O)[C@@H](C)O
– | > 1000 µM | > 1000 µM | CC(C)C[C@H](NC(=O)CNC(=O)[C@@H]1CCCN1C(=O)[C@@H]1CCCN1C(=O)CNC(=O)[C@H](CO)NC(=O)[C@@H](N)CCCN=C(N)N)C(=O)N[C@@H](CCC(N)=O)C(=O)NCC(=O)N[C@@H](CCCN=C(N)N)C(=O)O (H-RSGPPGLQGR-OH)
– | 0.19 µM | 1.64 µM | CC[C@H](C)[C@H](NC(=O)CNC(=O)[C@H](C)NC(=O)[C@H](C)NC(=O)[C@H](Cc1cnc[nH]1)NC(=O)[C@H](CC(N)=O)NC(=O)CNC(=O)[C@H](CO)NC(=O)[C@H](C)NC(=O)[C@H](C)NC(=O)[C@H](CC(C)C)NC(=O)[C@H](CC(C)C)NC(=O)[C@H](CCCNC(=N)N)NC(=O)[C@H](CCC(N)=O)NC(=O)[C@H](CC(C)C)NC(=O)[C@H](CCCNC(=N)N)NC(=O)CNC(=O)[C@H](CCC(N)=O)NC(=O)[C@H](CC(C)C)NC(=O)CN)C(=O)N[C@@H](CC(C)C)C(=O)N[C@H](C(=O)N[C@@H](CCSC)C(=O)O)[C@@H](C)O (H-GLQGRLQRLLAASGNHAAGILTM-OH)
